In PubChem BioAssay (NCI):
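Step 1: Grow cells in 96-well plates. Step 2: Expose to compound for 48 hours at 5 concentrations. Step 3: Interpolate endpoints linearly; if unreached, use highest concentration. The concentration for full growth arrest is given as TGI.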

Tests used:
Experiment in all cases: inhibition of tumour cell growth, NCI panel, 48 h
SF-539 CNS = test system: SF-539 CNS
M14 melanoma = test system: M14 melanoma
SK-MEL-28 melanoma = test system: SK-MEL-28 melanoma
U251 CNS = test system: U251 CNS
NCI-H23 lung = test system: NCI-H23 lung
OVCAR-3 ovarian = test system: OVCAR-3 ovarian
OVCAR-4 ovarian = test system: OVCAR-4 ovarian
HOP-92 NSCLC = test system: HOP-92 NSCLC
SR leukemia = test system: SR leukemia
DMS 114 small cell lung = test system: DMS 114 small cell lung
HCT-116 colon = test system: HCT-116 colon
RPMI-8226 leukemia = test system: RPMI-8226 leukemia
TK-10 renal = test system: TK-10 renal
COLO 205 colon = test system: COLO 205 colon
ACHN renal = test system: ACHN renal
K-562 leukemia = test system: K-562 leukemia
UO-31 renal = test system: UO-31 renal
A498 renal = test system: A498 renal
RXF 393 renal = test system: RXF 393 renal
SNB-75 CNS = test system: SNB-75 CNS
DLD-1 colon = test system: DLD-1 colon
SK-MEL-2 melanoma = test system: SK-MEL-2 melanoma
SF-295 CNS = test system: SF-295 CNS
SNB-19 CNS = test system: SNB-19 CNS
HL-60(TB) leukemia = test system: HL-60(TB) leukemia
SK-OV-3 ovarian = test system: SK-OV-3 ovarian
M19-MEL melanoma = test system: M19-MEL melanoma
NCI-H460 lung = test system: NCI-H460 lung
HOP-62 NSCLC = test system: HOP-62 NSCLC
MALME-3M melanoma = test system: MALME-3M melanoma
SK-MEL-5 melanoma = test system: SK-MEL-5 melanoma
KM20L2 colon = test system: KM20L2 colon
786-0 renal = test system: 786-0 renal
LOX IMVI melanoma = test system: LOX IMVI melanoma
HOP-18 NSCLC = test system: HOP-18 NSCLC
RXF-631 renal = test system: RXF-631 renal
SNB-78 CNS = test system: SNB-78 CNS
KM12 colon = test system: KM12 colon
UACC-257 melanoma = test system: UACC-257 melanoma
SF-268 CNS = test system: SF-268 CNS
HCC-2998 colon = test system: HCC-2998 colon
SN12C renal = test system: SN12C renal
DMS 273 small cell lung = test system: DMS 273 small cell lung
UACC-62 melanoma = test system: UACC-62 melanoma
LXFL 529 NSCLC = test system: LXFL 529 NSCLC
A549 NSCLC = test system: A549 NSCLC
NCI-H522 lung = test system: NCI-H522 lung
IGROV1 ovarian = test system: IGROV1 ovarian
EKVX NSCLC = test system: EKVX NSCLC
HT29 colon = test system: HT29 colon
OVCAR-5 ovarian = test system: OVCAR-5 ovarian
HCT-15 colon = test system: HCT-15 colon
SW-620 colon = test system: SW-620 colon
CCRF-CEM leukemia = test system: CCRF-CEM leukemia
MOLT-4 leukemia = test system: MOLT-4 leukemia
NCI-H226 lung = test system: NCI-H226 lung
OVCAR-8 ovarian = test system: OVCAR-8 ovarian
CAKI-1 renal = test system: CAKI-1 renal
XF 498 CNS = test system: XF 498 CNS

CCCCOC(=O)NC(=O)c1cn(CCSCCOC(=O)NCCCCCCNC(=O)OCCSCCn2cc(C(=O)NC(=O)OCCCC)c(=O)[nH]c2=O)c(=O)[nH]c1=O
TGI (SF-539 CNS): > 100 µM | TGI (M14 melanoma): > 100 µM | TGI (SK-MEL-28 melanoma): > 100 µM | TGI (U251 CNS): 74.1 µM | TGI (NCI-H23 lung): 94.5 µM | TGI (OVCAR-3 ovarian): > 100 µM | TGI (OVCAR-4 ovarian): > 100 µM | TGI (HOP-92 NSCLC): 71.8 µM | TGI (SR leukemia): > 100 µM | TGI (DMS 114 small cell lung): > 100 µM | TGI (HCT-116 colon): > 100 µM | TGI (RPMI-8226 leukemia): > 100 µM | TGI (TK-10 renal): 92.4 µM | TGI (COLO 205 colon): > 100 µM | TGI (ACHN renal): > 100 µM | TGI (K-562 leukemia): > 100 µM | TGI (UO-31 renal): > 100 µM | TGI (A498 renal): 64.7 µM | TGI (RXF 393 renal): > 100 µM | TGI (SNB-75 CNS): > 100 µM | TGI (DLD-1 colon): > 100 µM | TGI (SK-MEL-2 melanoma): > 100 µM | TGI (SF-295 CNS): > 100 µM | TGI (SNB-19 CNS): > 100 µM | TGI (HL-60(TB) leukemia): > 100 µM | TGI (SK-OV-3 ovarian): > 100 µM | TGI (M19-MEL melanoma): > 100 µM | TGI (NCI-H460 lung): > 100 µM | TGI (HOP-62 NSCLC): > 100 µM | TGI (MALME-3M melanoma): 76.6 µM | TGI (SK-MEL-5 melanoma): > 100 µM | TGI (KM20L2 colon): > 100 µM | TGI (786-0 renal): > 100 µM | TGI (LOX IMVI melanoma): > 100 µM | TGI (HOP-18 NSCLC): > 100 µM | TGI (RXF-631 renal): > 100 µM | TGI (SNB-78 CNS): > 100 µM | TGI (KM12 colon): > 100 µM | TGI (UACC-257 melanoma): > 100 µM | TGI (SF-268 CNS): > 100 µM | TGI (HCC-2998 colon): > 100 µM | TGI (SN12C renal): > 100 µM | TGI (DMS 273 small cell lung): > 100 µM | TGI (UACC-62 melanoma): > 100 µM | TGI (LXFL 529 NSCLC): > 100 µM | TGI (A549 NSCLC): > 100 µM | TGI (NCI-H522 lung): > 100 µM | TGI (IGROV1 ovarian): > 100 µM | TGI (EKVX NSCLC): > 100 µM | TGI (HT29 colon): > 100 µM | TGI (OVCAR-5 ovarian): > 100 µM | TGI (HCT-15 colon): > 100 µM

O=C1C(=O)N(c2ccc(Cl)cc2Cl)C(=O)C(=O)C1c1nc2ccccc2o1
TGI (SF-539 CNS): > 100 µM | TGI (M14 melanoma): > 100 µM | TGI (SK-MEL-28 melanoma): > 100 µM | TGI (U251 CNS): > 100 µM | TGI (NCI-H23 lung): > 100 µM | TGI (OVCAR-3 ovarian): > 100 µM | TGI (OVCAR-4 ovarian): > 100 µM | TGI (HOP-92 NSCLC): > 100 µM | TGI (SR leukemia): > 100 µM | TGI (SW-620 colon): > 100 µM | TGI (HCT-116 colon): > 100 µM | TGI (RPMI-8226 leukemia): > 100 µM | TGI (CCRF-CEM leukemia): > 100 µM | TGI (TK-10 renal): > 100 µM | TGI (COLO 205 colon): > 100 µM | TGI (ACHN renal): > 100 µM | TGI (K-562 leukemia): > 100 µM | TGI (UO-31 renal): > 100 µM | TGI (A498 renal): > 100 µM | TGI (SNB-75 CNS): > 100 µM | TGI (DLD-1 colon): > 100 µM | TGI (SK-MEL-2 melanoma): > 100 µM | TGI (SF-295 CNS): > 100 µM | TGI (SNB-19 CNS): > 100 µM | TGI (HL-60(TB) leukemia): > 100 µM | TGI (SK-OV-3 ovarian): > 100 µM | TGI (M19-MEL melanoma): > 100 µM | TGI (NCI-H460 lung): > 100 µM | TGI (HOP-62 NSCLC): > 100 µM | TGI (MALME-3M melanoma): > 100 µM | TGI (SK-MEL-5 melanoma): > 100 µM | TGI (MOLT-4 leukemia): > 100 µM | TGI (KM20L2 colon): > 100 µM | TGI (786-0 renal): > 100 µM | TGI (NCI-H226 lung): > 100 µM | TGI (HOP-18 NSCLC): > 100 µM | TGI (RXF-631 renal): > 100 µM | TGI (SNB-78 CNS): > 100 µM | TGI (KM12 colon): > 100 µM | TGI (UACC-257 melanoma): > 100 µM | TGI (SF-268 CNS): > 100 µM | TGI (HCC-2998 colon): > 100 µM | TGI (SN12C renal): > 100 µM | TGI (DMS 273 small cell lung): > 100 µM | TGI (UACC-62 melanoma): > 100 µM | TGI (OVCAR-8 ovarian): > 100 µM | TGI (CAKI-1 renal): > 100 µM | TGI (LXFL 529 NSCLC): > 100 µM | TGI (A549 NSCLC): > 100 µM | TGI (XF 498 CNS): > 100 µM | TGI (NCI-H522 lung): > 100 µM | TGI (IGROV1 ovarian): > 100 µM | TGI (EKVX NSCLC): > 100 µM | TGI (HT29 colon): > 100 µM | TGI (OVCAR-5 ovarian): > 100 µM | TGI (HCT-15 colon): > 100 µM
